These results are taken from patent US9499504B2, “Crystalline form of vortioxetine hydrobromide” (Sandoz AG, priority 2012, dated 2016).

The structures appear in SMILES notation.

Data set [1] can be described thus: Solid-state stability of the hydrate at room temperature. The class given is physicochemical. As to conditions: not stable. From the text: The novel hydrate of vortioxetine hydrobromide is not stable at room temperature and converts to form alpha of WO 2007/144005 A1 within about 4 weeks.
For data set [2] the following is noted: exposed to high relative humidity; example 4f of WO 2007/144005 A1; cited from earlier work.
Data set [3] in a line: Solubility as a function of time in hexanol/n-heptane (1:39 v:v), UV-spectrophotometry. The class given is physicochemical. As to conditions: 25±1° C., UV at 227 nm, hydrobromide. The text has this:
It is known to a person skilled in the art that the difference in the relative solubility of two polymorphs is independent from the solvent system, if an “ideal solution”, meaning a solution which is not too concentrated, is present. (see e.g. Kuhnert-Brandstätter M., Burger A., Pharmazeutische Industrie, 1972, 34, Nr. 3, 187-190; Samuel H. Yalowsky, Solubility and Solubilization in Aqueous Media, ACS, Oxford University Press 1999, ISBN: 0-8412-3576-7, p. 98). Therefore the solubilities of vortioxetine hydrobromide forms alpha and beta of WO 2007/144005 A1 and the compound of the present invention were determined in a mixture of hexanol and n-heptane. […] (see example 4 of the present invention).
The solubilities as a function of time were determined for vortioxetine hydrobromide polymorphs alpha, beta and the crystalline compound of the present invention, respectively. Therefore approximately 100 mg of each polymorph (polymorph alpha and beta were obtained according to the procedures disclosed in WO 2007/144005 A1, the crystalline compound of the present invention was obtained according to the procedure disclosed in example 1 herein) were stirred in 50 mL of a mixture of hexanol/n-heptane (1:39=v:v) at 25±1° C. Subsequently 5 mL were taken from each suspension after 1, 5, 10, 15, 30 and 60 minutes with the aid of a volumetric pipette and filtered. The concentrations of the obtained solutions were determined directly by UV-spectrophotometry (apparatus: Shimadzu UV1800) at 227 nm.
The determination of the extinction coefficient was performed with polymorph delta as a calibration substance.

A short description of data set [4]: Water solubility calculated from relative solubilities and WO 2007/144005 A1 water solubility data. As to conditions: calculation with water solubility value of polymorph alpha (2.0 mg/mL) from WO 2007/144005 A1, hydrobromide.
Text: (§1) Using the water solubility values of polymorphs alpha and beta provided in WO 2007/144005 A1 and the herein determined relative solubilities of polymorphs alpha, beta and delta the water solubility of the crystalline compound of the present invention can be calculated.
A short description of data set [5]: Gravimetric moisture sorption/desorption cycle. In kind it is physicochemical. The text has this: In addition, an active pharmaceutical ingredient is preferably non-hygroscopic in order to ensure the chemical and physical quality during the storage of the active substance itself. Furthermore, an active pharmaceutical ingredient is preferably non-hygroscopic in order to ensure the chemical and physical quality also during the shelf-life of a solid finished dosage form containing the active substance. Special and expensive packaging can then be avoided. […] For instance, in example 4f of WO 2007/144005 A1, it is mentioned that form gamma absorbs about 4.5% water when exposed to high relative humidity and in example 4h of the same application it is stated that the water content of the hemihydrate strongly depends on the relative humidity. For instance, the water content of the hemihydrate at 95% relative humidity is about 3.7% according to example 4h of WO 2007/144005.
Gravimetric moisture sorption/desorption curves were acquired using a SPS-11 moisture sorption analyzer (MD Messtechnik, Ulm, D). The measurement cycle was started at 43% relative humidity (RH) and decreased in 10% steps down to 0% RH; up to 95% RH, down to 0% RH and up to 43% RH. The equilibrium condition for each step was set to a mass constancy of ±0.01% over 30 min. The temperature was 25±0.1° C.

A further data set can be described thus: physchem. As to conditions: water.

Text for physchem: as §1

As to `Cc1ccc(Sc2ccccc2N2CCNCC2)c(C)c1`, the “time to conversion to form alpha” value in data set [1] is no more than 4 weeks.
`Br.Cc1ccc(Sc2ccccc2N2CCNCC2)c(C)c1` [form gamma, 1-{2-[(2,4-dimethylphenyl)sulfanyl]phenyl}piperazine hydrobromide]: the water absorbed result in data set [2] was “about 4.5%”.
Turning to `Br.Cc1ccc(Sc2ccccc2N2CCNCC2)c(C)c1` [polymorph alpha, 1-{2-[(2,4-dimethylphenyl)sulfanyl]phenyl}piperazine hydrobromide], the “absolute solubility in hexanol/n-heptan (1:39 = v:v)” value (“absolute solubility” below) in data set [3] (listed as alpha) is 31 µg/mL.
On to `Br.Cc1ccc(Sc2ccccc2N2CCNCC2)c(C)c1` [polymorph beta, 1-{2-[(2,4-dimethylphenyl)sulfanyl]phenyl}piperazine hydrobromide, reference compound], for which the “calculated water solubility 1)” value in data set [4] is 1000 µg/mL. Besides, in data set [3] (listed as beta), the “absolute solubility” value was 15 µg/mL.
As to `Br.Cc1ccc(Sc2ccccc2N2CCNCC2)c(C)c1` [polymorph delta, 1-{2-[(2,4-dimethylphenyl)sulfanyl]phenyl}piperazine hydrobromide], the “calculated water solubility 1)” value in data set [4] (listed as compound of the present invention) is 3000 µg/mL. In addition, in data set [3] (listed as present invention), the “absolute solubility” value turned out to be 48 µg/mL. The hygroscopicity result in data set [5] (according to the specifications of the European Pharmacopoeia) is listed as “non-hygroscopic”. In addition, the water content entry is listed as “about 0.3%” in data set [5] (relative humidity of about 0%, 25° C.); “about 0.5%” in data set [5] (relative humidity of about 80%, 25° C.); “less than 0.7%” in data set [5] (up to a relative humidity of about 95%). Moreover, the solubility (usually the dissolved amount per volume that the medium holds) in the data set “physchem” is 3800 µg/mL.
